A short description of data set [1]: Urinary excretion after i.v. infusion. In kind it is in vivo, Sprague-Dawley rats. The settings on record: rat, urine, iv, read-out: Proportion of administered dose appearing in urine. As to the method: Adult male Sprague-Dawley rats (body weight 200-230 g) were anesthetized by an intraperitoneal injection of pentobarbital (Nembutal, 7.5 mg/100 g body weight), and maintained under sedation by additional doses. The right jugular vein and the common bile duct were cannulated using PE-50 polyethylene tubing (Clay-Adams, Parsippany, N.J.). Body temperature was maintained throughout the experiment at 37° C. using a rectal probe and a thermostatically controlled heating pad (Harvard Apparatus Co., Inc., Millis, Mass.). Saline was infused at a rate of 1.0 ml/h using a Harvard pump (Harvard Apparatus Co., Inc.) into the jugular vein for a control period of 2h. After collecting two 10 minute bile samples for base-line analysis, the bile acids were individually infused intravenously (i.v.) for 30 minutes in stepwise increasing doses (0.5, 1.0, and 2.0 μmol/min/100 g body weight). Bile acid solutions were prepared in 3% human albumin in 0.45% saline. Six animals were used for each experiment and bile was collected every 10 minutes into preweighed tubes. At the end of the experiment, blood was obtained by cardiac puncture, and urine was obtained by aspiration of the bladder. All biological specimens were stored at -20° C. This animal study protocol (#1 B 10044) was approved by the Bioethics committee of the Children's Hospital Medical Center (Cincinnati, Ohio).
Negative ion fast atom bombardment-mass spectrometry (FAB-MS) spectra of bile samples, urine and synthetic compounds were obtained after placing the equivalent of approximately 1 μl of the original bile extract, 10 μl-50 μl of the urine extract and jig quantities of synthetic bile acids dissolved in methanol onto a small drop of a glycerol matrix spotted on a copper target of the FAB probe. This probe was introduced directly into the ion source of the mass spectrometer and a beam of fast atoms of either xenon generated with a saddle field atom gun (ion Tech, Teddington, Middlesex, UK) operated at 8 kV and 20 μA, or cesium generated from cesium iodine (35 kV), was fired at the target containing the sample. Negative ion spectra were obtained over the mass range of 50-1000 Da/e.
Urine collections from the six animals were pooled and the bile acids were extracted by liquid-solid extraction using a Bond Elut-C18 cartridge and bile acids were analyzed by GC-MS after solvolysis, hydrolysis and derivatization.

Data set [2] can be described thus: Urinary excretion of UDCA after oral administration. In kind it is in vivo, Sprague-Dawley rats. As to the method: Male Sprague-Dawley rats (Harlan Sprague-Dawley, Inc., Indianapolis, Ind.), weighing 210-290 g, were maintained on a 12-hour light-dark cycle and fed standard laboratory chow ad libitum for 3 days. The animals were then transferred to metabolic cages in which they were housed individually and fed the same diet. UDCA, UDCA 3-sulfate, UDCA 7-sulfate, and UDCA 3,7-disulfate were administered by gavage at a dose of 250 mg/day for 4 consecutive days. Each group comprised 3-6 rats. Body weights of the animals were measured each day. On day 5, the animals were killed by exsanguination under ether anesthesia. Plasma was collected and frozen at -20° C. The liver was removed, rinsed in normal saline, and flash-frozen in liquid nitrogen. Urine and feces were collected every 24 hours and frozen at -20° C. All animals received humane care in compliance with the "Guide for the Care and Use of Laboratory Animals" prepared by the National Academy of Sciences (National Institutes of Health publication no. 86-23, revised in 1985).
In each group, urine from all animals was pooled on the individual days of collection. Day 1 represented the baseline sample, and samples from days 2, 3 and 4 were obtained during bile acid administration. After the addition of nordeoxycholic acid (1 μg), bile acids were quantitatively extracted from portions of urine (3 mL) and plasma (1 mL) using Bond-Elut C18 cartridges. After liquid-solid extraction, isolation and separation of unconjugated and conjugated bile acids were achieved by lipophilic anion-exchange chromatography on Lipidex-DEAP. Solvolysis of bile acid conjugates and isolation of the hydrolyzed products were performed as described above, and bile acids were converted to volatile methyl ester-trimethylsilyl ether derivatives.
GC-MS analysis was performed using a Finnigan 4635 mass spectrometer (Finnigan Inc., San Jose, Calif.) that housed an identical gas chromatography column operated under the same conditions. Electron ionization (70 eV) mass spectra were recorded over the mass range of 50-800 daltons by repetitive scanning of the eluting components. Identification of bile acids was made on the basis of the gas chromatography retention index relative to a homologous series of n-alkanes, referred to as the methylene unit value, and the mass spectrum compared with authentic standards. Quantification of bile acids was achieved using gas chromatography by comparing the peak height response of the individual bile acids with the peak height response obtained from the internal standard.
Liquid secondary ionization mass spectrometry negative ion spectra of urine samples were obtained after placing approximately 1 μL of the methanolic extract onto a small drop of a glycerol/methanol matrix spotted on a stainless steel probe. This probe was introduced into the ion source of a VG Autospec Q mass spectrometer, and a beam of fast atoms of cesium, generated from cesium iodine (35 KeV), was fired at the target containing the sample. Negative ion spectra were obtained over the mass range of 50-1000 daltons.
Data are expressed as mean±SEM or as mean values of all animals when extracts were pooled before analysis. Results from different groups were compared using paired and unpaired two-tailed Student's t-test. P values of <0.05 were considered statistically significant.

The results in this text go back to patent US5763435A, “Sulfate conjugates of ursodeoxycholic acid, and their beneficial use in inflammatory disorders” (priority 1995, dated 1998).

With `C[C@H](CCC(=O)O)[C@H]1CC[C@H]2[C@@H]3[C@@H](OS(=O)(=O)O)C[C@@H]4C[C@H](OS(=O)(=O)O)CC[C@]4(C)[C@H]3CC[C@]12C` [UDCA-DS, ursodeoxycholic acid 3,7-disulfate], in data set [1], the dose excreted came out at 2.2%. Moreover, in data set [2], the “Urinary excretion of sulfate conjugates of UDCA” value (shortened to “Urinary excretion”) is 217.1 nmol/day and the “Urinary unconjugated UDCA excretion” value is recorded as 1.3 nmol/day.

Consider `C[C@H](CCC(=O)O)[C@H]1CC[C@H]2[C@@H]3[C@@H](O)C[C@@H]4C[C@H](O)CC[C@]4(C)[C@H]3CC[C@]12C` [UDCA, 3 alpha, 7 beta-dihydroxy-5 beta-cholan-24oic acid, reference compound], for which the dose excreted in data set [1] is 0.01%. Further, in data set [2], the “Urinary excretion” value stood at 4.6 nmol/day and the “Urinary unconjugated UDCA excretion” value was found to be 642.7 nmol/day.

With `C[C@H](CCC(=O)O)[C@H]1CC[C@H]2[C@@H]3[C@@H](OS(=O)(=O)O)C[C@@H]4C[C@H](O)CC[C@]4(C)[C@H]3CC[C@]12C` [UDCA-7S, ursodeoxycholic acid 7-sulfate], in data set [1], the dose excreted was 0.9%. Also, in data set [2], the “Urinary excretion” value turned out to be 317.8 nmol/day and the “Urinary unconjugated UDCA excretion” value is listed as 1.8 nmol/day.

With `C[C@H](CCC(=O)O)[C@H]1CC[C@H]2[C@@H]3[C@@H](O)C[C@@H]4C[C@H](OS(=O)(=O)O)CC[C@]4(C)[C@H]3CC[C@]12C` [UDCA-3S, ursodeoxycholic acid 3-sulfate], the dose excreted in data set [1] came to 2.8%. Besides, in data set [2], the “Urinary excretion” value is 2.7 nmol/day and the “Urinary unconjugated UDCA excretion” value was determined as 5.2 nmol/day.
